{"source": "paper PMC12864978", "about": "“Covalent modification of a glutamic acid inspired by HaloTag technology” (Nature Communications, 2026)", "key": {"[1]": {"experiment": "Compound stability in aqueous buffers", "type": "physicochemical", "experimental": "Compound (1 mM) was incubated with the respective buffers (HEPES 20 mM, 150 mM NaCl, pH = 7.5; 0.2 M sodium acetate buffer, pH = 5.6; 0.2 M sodium citrate buffer, pH = 6.2; 0.2 M potassium phosphate buffer, pH = 7.4, 1 mM EDTA, with or without 10 mM GSH), with 1% DMSO adjusted for all conditions. […] Per cent (%) compound remaining in the solution was estimated by the ratio of areas under the curve, and data plotted were fitted to pseudo-1st kinetics in the calculation of rate constants (k) and half-lives (t1/2), where k is the negative slope of a linear regression of In (% compound remaining) over time. Half-lives (t1/2) in respective buffers and half-lives for GSH adduct formation (t1/2 GSH) were calculated with the following equations:1 t1/2=In2/k 2 kGSH=ktotalconsumptioninphosphatebufferinpresenceofGSH−k(phosphatebufferinabsenceofGSH) 3 t1/2GSH=In2/k(GSH) […]\na, Percentage (%) of compound remaining was monitored by HPLC-MS and data was fitted to pseudo-first kinetics in calculation of rate constants (k) and half-lives (t1/2) in respective buffers, where k is the negative slope of a linear regression of In (% compound remaining) over time and t 1/2 = In2/k. Initial […]\nInitial GSH concentration ="}, "[2]": {"system": "mTORC1 substrate S6P in PA-TU-8902 cells", "conditions": "10 µM", "protocol": "Relative band intensities were quantified using Image Lab (BIO-RAD).\nCells were treated with 10 µM\nCells were then washed twice"}, "[3]": {"molecular_target": "Jurkat cell lysate proteome (Homo sapiens, UniProt Q9UHA4)", "sequence (Q9UHA4 whole entry)": "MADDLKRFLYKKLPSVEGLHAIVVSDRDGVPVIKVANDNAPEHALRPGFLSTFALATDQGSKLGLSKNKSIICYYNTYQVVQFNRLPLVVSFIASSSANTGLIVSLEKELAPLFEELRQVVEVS", "experiment": "In-lysate thermal proteome profiling (TPP)", "protocol": "(§1) Jurkat cells were grown to a density of 1.0–2.5 × 10⁶ cells/ml. A 100 ml aliquot of the suspension was divided equally into two Falcon tubes and chilled on ice for 2 min. Cells were pelleted by centrifugation at 350×g for 3 min at room temperature. After discarding the supernatant, the combined pellet was resuspended in 25 ml of ice-cold PBS buffer. The washing step—centrifugation at 350×g for 2 min at room temperature, followed by supernatant removal—was further repeated twice. Following the final wash, the cell pellet was resuspended in 1.5 ml of PBS containing 0.4% (v/v) NP40 alternative and flash-frozen in liquid nitrogen. […] The resulting lysate was separated by ultracentrifugation at 100,000×g for 20 min at 4 °C (Beckman Coulter Optima MAX-XP, MLA-80 rotor). The supernatant was carefully collected, snap-frozen in liquid nitrogen, and stored at −80 °C for subsequent analysis.\n(§2) Protein concentration was quantified using the Bradford protein assay. […] Following incubation, each aliquot was further subdivided into nine 120 µl portions in PCR tubes. […] For analysis, 75 µl of each supernatant was allocated for mass spectrometry-based thermal protein profiling (TPP), while the remaining 25 µl was used for immunoblotting to assess PDEδ levels.\n(§3) For mass spectrometric analysis, sample processing was further proceeded with reduction and alkylation, followed by acetone precipitation and tryptic digestion. Each digested aliquot was then labelled with isobaric TMT reagents (Thermo Fisher Scientific, A52047) corresponding to its specific temperature condition from the thermal shift assay.\n(§4) Proteins were considered as stabilised or destabilised when, in all three replicates,\n(§5) tailed p-values were determined by applying paired t-test comparing AUC of melting curves\n(§6) between DMSO-treated and compound-treated conditions, OR\n(§7) least ± 10 % (same direction) compared to the DMSO control."}, "[4]": {"molecular_target": "Jurkat cell lysate proteome (Homo sapiens, UniProt P37802)", "sequence (P37802 whole entry)": "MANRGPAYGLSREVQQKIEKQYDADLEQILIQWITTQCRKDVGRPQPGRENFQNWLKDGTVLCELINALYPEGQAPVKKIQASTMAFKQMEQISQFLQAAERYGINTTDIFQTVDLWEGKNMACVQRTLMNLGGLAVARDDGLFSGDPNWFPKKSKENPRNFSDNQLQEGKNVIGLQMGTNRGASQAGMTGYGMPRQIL", "experiment": "In-lysate thermal proteome profiling (TPP)", "protocol": "as §1, §2, §3, §4, §5, §6, §7"}, "[5]": {"molecular_target": "Jurkat cell lysate proteome (Homo sapiens, UniProt P49773)", "sequence (P49773 whole entry)": "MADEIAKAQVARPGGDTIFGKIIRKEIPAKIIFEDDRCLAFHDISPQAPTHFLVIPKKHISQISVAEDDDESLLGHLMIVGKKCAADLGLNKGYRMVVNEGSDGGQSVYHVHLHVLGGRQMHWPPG", "experiment": "In-lysate thermal proteome profiling (TPP)", "protocol": "as §1, §2, §3, §4, §5, §6, §7"}, "[6]": {"molecular_target": "Jurkat cell lysate proteome (Homo sapiens, UniProt Q14108)", "sequence (Q14108 whole entry)": "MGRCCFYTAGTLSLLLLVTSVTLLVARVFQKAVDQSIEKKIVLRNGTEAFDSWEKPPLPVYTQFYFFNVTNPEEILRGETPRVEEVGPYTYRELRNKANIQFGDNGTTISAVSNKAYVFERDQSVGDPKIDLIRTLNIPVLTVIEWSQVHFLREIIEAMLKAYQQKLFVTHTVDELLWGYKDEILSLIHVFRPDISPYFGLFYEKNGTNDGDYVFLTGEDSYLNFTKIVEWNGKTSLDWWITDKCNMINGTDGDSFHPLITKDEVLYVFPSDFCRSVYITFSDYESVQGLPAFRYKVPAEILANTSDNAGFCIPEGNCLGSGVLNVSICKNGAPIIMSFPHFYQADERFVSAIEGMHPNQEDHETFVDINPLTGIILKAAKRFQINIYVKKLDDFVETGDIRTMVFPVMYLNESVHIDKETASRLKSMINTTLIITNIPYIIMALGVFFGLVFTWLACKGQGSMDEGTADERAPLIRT", "experiment": "In-lysate thermal proteome profiling (TPP)", "protocol": "as §1, §2, §3, §4, §5, §6, §7"}, "[7]": {"molecular_target": "Jurkat cell lysate proteome (Homo sapiens, UniProt P36404)", "sequence (P36404 whole entry)": "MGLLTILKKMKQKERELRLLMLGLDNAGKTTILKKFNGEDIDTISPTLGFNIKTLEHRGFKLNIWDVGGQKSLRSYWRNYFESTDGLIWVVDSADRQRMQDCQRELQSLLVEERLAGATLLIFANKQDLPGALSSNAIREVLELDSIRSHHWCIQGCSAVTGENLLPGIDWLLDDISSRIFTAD", "experiment": "In-lysate thermal proteome profiling (TPP)", "protocol": "as §1, §2, §3, §4, §5, §6, §7"}, "[8]": {"molecular_target": "Jurkat cell lysate proteome (Homo sapiens, UniProt P05388)", "experiment": "In-lysate thermal proteome profiling (TPP)", "protocol": "as §1, §2, §3, §4, §5, §6, §7"}, "[9]": {"molecular_target": "T1, Jurkat cell lysate proteome (Homo sapiens, UniProt Q16854)", "T1 sequence (Q16854 40-277)": "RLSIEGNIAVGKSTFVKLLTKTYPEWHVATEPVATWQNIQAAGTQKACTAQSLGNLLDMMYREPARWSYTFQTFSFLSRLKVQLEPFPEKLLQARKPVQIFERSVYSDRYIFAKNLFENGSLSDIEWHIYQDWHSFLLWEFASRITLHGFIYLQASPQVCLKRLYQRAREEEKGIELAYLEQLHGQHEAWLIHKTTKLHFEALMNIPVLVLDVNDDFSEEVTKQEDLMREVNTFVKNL", "experiment": "In-lysate thermal proteome profiling (TPP)", "protocol": "as §1, §2, §3, §4, §5, §6, §7"}, "[10]": {"molecular_target": "Jurkat cell lysate proteome (Homo sapiens, UniProt P62318)", "sequence (P62318 whole entry)": "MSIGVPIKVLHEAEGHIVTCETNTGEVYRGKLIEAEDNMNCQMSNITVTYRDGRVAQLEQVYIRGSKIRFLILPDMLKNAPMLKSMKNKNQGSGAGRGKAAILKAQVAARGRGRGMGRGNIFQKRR", "experiment": "In-lysate thermal proteome profiling (TPP)", "protocol": "as §1, §2, §3, §4, §5, §6, §7"}, "[11]": {"molecular_target": "T2, Jurkat cell lysate proteome (Homo sapiens, UniProt O95628)", "T2 sequence (O95628 1-575)": "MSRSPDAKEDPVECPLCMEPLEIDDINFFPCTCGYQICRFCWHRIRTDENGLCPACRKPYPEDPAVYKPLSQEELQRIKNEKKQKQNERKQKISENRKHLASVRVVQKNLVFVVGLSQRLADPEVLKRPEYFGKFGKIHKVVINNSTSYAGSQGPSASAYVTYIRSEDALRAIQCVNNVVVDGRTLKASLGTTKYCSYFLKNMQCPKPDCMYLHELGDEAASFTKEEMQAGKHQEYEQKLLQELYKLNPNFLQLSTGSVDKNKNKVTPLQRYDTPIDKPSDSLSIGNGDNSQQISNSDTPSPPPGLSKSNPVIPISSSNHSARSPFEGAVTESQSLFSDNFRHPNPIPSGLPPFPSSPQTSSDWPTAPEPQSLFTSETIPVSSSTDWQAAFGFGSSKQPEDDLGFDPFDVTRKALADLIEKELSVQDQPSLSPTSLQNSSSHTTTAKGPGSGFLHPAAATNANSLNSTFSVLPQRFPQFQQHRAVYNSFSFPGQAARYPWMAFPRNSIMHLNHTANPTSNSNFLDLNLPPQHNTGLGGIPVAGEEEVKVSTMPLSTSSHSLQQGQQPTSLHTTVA", "experiment": "In-lysate thermal proteome profiling (TPP)", "protocol": "as §1, §2, §3, §4, §5, §6, §7"}, "[12]": {"molecular_target": "Jurkat cell lysate proteome (Homo sapiens, UniProt P62899)", "experiment": "In-lysate thermal proteome profiling (TPP)", "protocol": "as §1, §2, §3, §4, §5, §6, §7"}}, "note": "Read-outs that look alike come from different tables or passages of the source."}
{"smiles": "Cc1ccc(-n2nc3c(=O)n(CCCCS(=O)(=O)N(CCc4cccc(CCBr)c4)CC4CCNCC4)nc(C)c3c2C)cc1", "note": "[6a]", "values": [{"measurement": "half-life at 1 mM", "setting": "[1]; HEPES buffer, pH 7.5, 37 °C, compound 1 mM, read-out: half-life t1/2 in HEPES buffer (converted)", "result": 20, "unit": "days"}, {"measurement": "half-life at 1 mM", "setting": "[1]; acetate buffer, pH 5.6, 37 °C, read-out: half-life t1/2 in acetate buffer (converted)", "result": 6.04, "unit": "days"}, {"measurement": "S6P phosphorylation", "setting": "[2]", "result": "reduced S6P phosphorylation in a time-dependent manner"}, {"measurement": "ΔAUC LAMTOR3", "setting": "[3]; 10 µM, 15 min", "result": -2.1}, {"measurement": "ΔI67°C LAMTOR3", "setting": "[3]; 10 µM, 15 min", "result": "-3 ± 2", "unit": "%"}, {"measurement": "ΔAUC LAMTOR3", "setting": "[3]; 10 µM, 15 min, listed as DeltaTag", "result": "−2.1"}, {"measurement": "ΔTm at 10 µM", "setting": "[3]; read-out: ΔTm LAMTOR3, 10 µM, 15 min", "result": "-2.6 ± 1.4", "unit": "°C"}, {"measurement": "ΔAUC TAGLN2", "setting": "[4]; 10 µM, 15 min", "result": 1.4}, {"measurement": "ΔI67°C TAGLN2", "setting": "[4]; 10 µM, 15 min", "result": "-5 ± 9", "unit": "%"}, {"measurement": "ΔTm at 10 µM", "setting": "[4]; read-out: ΔTm TAGLN2, 10 µM, 15 min", "result": "2.8 ± 0.7", "unit": "°C"}, {"measurement": "ΔAUC HINT1", "setting": "[5]; 10 µM, 15 min", "result": 3.6}, {"measurement": "ΔI67°C HINT1", "setting": "[5]; 10 µM, 15 min", "result": "3 ± 6", "unit": "%"}, {"measurement": "ΔTm at 10 µM", "setting": "[5]; read-out: ΔTm HINT1, 10 µM, 15 min", "result": "4 ± 1.4", "unit": "°C"}, {"measurement": "ΔI67°C SCARB2", "setting": "[6]; 10 µM, 15 min", "result": "-14 ± 4", "unit": "%"}, {"measurement": "ΔTm at 10 µM", "setting": "[6]; read-out: ΔTm SCARB2, 10 µM, 15 min", "result": "0.7 ± 2.1", "unit": "°C"}, {"measurement": "ΔAUC Arl2", "setting": "[7]; 10 µM, 15 min", "result": 0.97}, {"measurement": "ΔTm at 10 µM", "setting": "[7]; read-out: ΔTm Arl2, 10 µM, 15 min", "result": -0.92, "unit": "°C"}, {"measurement": "ΔAUC RPLP0", "setting": "[8]; 10 µM, 15 min", "result": -2.9}, {"measurement": "ΔI67°C RPLP0", "setting": "[8]; 10 µM, 15 min", "result": "-4 ± 5", "unit": "%"}, {"measurement": "ΔTm at 10 µM", "setting": "[8]; read-out: ΔTm RPLP0, 10 µM, 15 min", "result": "-5.2 ± 2.7", "unit": "°C"}, {"measurement": "ΔAUC DGUOK", "setting": "[9]; 10 µM, 15 min", "result": -2.3}, {"measurement": "ΔI67°C DGUOK", "setting": "[9]; 10 µM, 15 min", "result": "0 ± 2", "unit": "%"}, {"measurement": "ΔTm at 10 µM", "setting": "[9]; read-out: ΔTm DGUOK, 10 µM, 15 min", "result": "-2.9 ± 1.9", "unit": "°C"}, {"measurement": "ΔAUC SNRPD3", "setting": "[10]; 10 µM, 15 min", "result": -2}, {"measurement": "ΔI67°C SNRPD3", "setting": "[10]; 10 µM, 15 min", "result": "-9 ± 11", "unit": "%"}, {"measurement": "ΔTm at 10 µM", "setting": "[10]; read-out: ΔTm SNRPD3, 10 µM, 15 min", "result": "0.8 ± 0.7", "unit": "°C"}, {"measurement": "ΔAUC CNOT4", "setting": "[11]; 10 µM, 15 min", "result": -1.7}, {"measurement": "ΔI67°C CNOT4", "setting": "[11]; 10 µM, 15 min", "result": "0 ± 3", "unit": "%"}, {"measurement": "ΔTm at 10 µM", "setting": "[11]; read-out: ΔTm CNOT4, 10 µM, 15 min", "result": "-2.7 ± 1", "unit": "°C"}, {"measurement": "ΔAUC RPL31", "setting": "[12]; 10 µM, 15 min", "result": -2.5}, {"measurement": "ΔI67°C RPL31", "setting": "[12]; 10 µM, 15 min", "result": "-6 ± 5", "unit": "%"}, {"measurement": "ΔTm at 10 µM", "setting": "[12]; read-out: ΔTm RPL31, 10 µM, 15 min", "result": "-2.1 ± 0.6", "unit": "°C"}]}
